In the assay the target is T1, Accessory gene regulator protein A (Staphylococcus aureus, UniProt P0A0I7).
T1 sequence (P0A0I7 whole entry): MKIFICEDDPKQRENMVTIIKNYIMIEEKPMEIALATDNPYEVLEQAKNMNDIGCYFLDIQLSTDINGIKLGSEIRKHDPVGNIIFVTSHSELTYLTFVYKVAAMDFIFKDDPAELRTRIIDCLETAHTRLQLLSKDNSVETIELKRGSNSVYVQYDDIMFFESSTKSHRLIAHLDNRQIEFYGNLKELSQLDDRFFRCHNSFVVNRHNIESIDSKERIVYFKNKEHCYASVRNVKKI
The experiment in a line: Inhibition of Staphylococcus aureus RN6390B Agr-mediated RNA3 promoter activation measured up to 6 hrs by Northern blot analysis.

1 compound from BindingDB's records for doi:10.1021/jm3014635 (University of Nottingham, 2013) can be followed below.

Usually IC50 stands for the concentration that gives 50% inhibition. A lower IC50 goes with greater potency in that assay.

Consider `CCCCCCCCCC(=O)CC(=O)N[C@H]1CCOC1=O`, for which the half-maximal inhibitory concentration (IC50) was found to be 6 µM. This lies in the single-digit micromolar range.
